Test results from ChEMBL document CHEMBL4342480, “Design of Dual Inhibitors of Soluble Epoxide Hydrolase and LTA4 Hydrolase” (ACS Med Chem Lett, 2020).

How the values were obtained:
Assay type in all cases: functional
[1] = system: Macrophage; test: Antiinflammatory activity in Escherichia coli O6:K2:H1-induced human M1 macrophage assessed as change in 17-HDHA level at 1 uM preincubated for 10 mins followed by Escherichia coli O6:K2:H1-stimulation and measured after 180 mins by UPLC-MS/MS analysis relative to control
[2] = system: Macrophage; test: Antiinflammatory activity in Escherichia coli O6:K2:H1-induced human M1 macrophage assessed as change in 5-HETE level at 10 uM preincubated for 10 mins followed by Escherichia coli O6:K2:H1-stimulation and measured after 180 mins by UPLC-MS/MS analysis relative to control
[3] = system: Macrophage; test: Antiinflammatory activity in Escherichia coli O6:K2:H1-induced human M2 macrophage assessed as change in 15-HETE level at 10 uM preincubated for 10 mins followed by Escherichia coli O6:K2:H1-stimulation and measured after 180 mins by UPLC-MS/MS analysis relative to control
[4] = system: Macrophage; test: Antiinflammatory activity in Escherichia coli O6:K2:H1-induced human M1 macrophage assessed as change in 4-HDHA level at 1 uM preincubated for 10 mins followed by Escherichia coli O6:K2:H1-stimulation and measured after 180 mins by UPLC-MS/MS analysis relative to control
[5] = system: Macrophage; test: Antiinflammatory activity in Escherichia coli O6:K2:H1-induced human M2 macrophage assessed as change in 17-HDHA level at 1 uM preincubated for 10 mins followed by Escherichia coli O6:K2:H1-stimulation and measured after 180 mins by UPLC-MS/MS analysis relative to control
[6] = system: Macrophage; test: Antiinflammatory activity in Escherichia coli O6:K2:H1-induced human M2 macrophage assessed as change in 12-HEPE level at 10 uM preincubated for 10 mins followed by Escherichia coli O6:K2:H1-stimulation and measured after 180 mins by UPLC-MS/MS analysis relative to control
[7] = system: Macrophage; test: Antiinflammatory activity in Escherichia coli O6:K2:H1-induced human M2 macrophage assessed as change in 4-HDHA level at 1 uM preincubated for 10 mins followed by Escherichia coli O6:K2:H1-stimulation and measured after 180 mins by UPLC-MS/MS analysis relative to control
[8] = system: Macrophage; test: Antiinflammatory activity in Escherichia coli O6:K2:H1-induced human M1 macrophage assessed as change in 4-HDHA level at 10 uM preincubated for 10 mins followed by Escherichia coli O6:K2:H1-stimulation and measured after 180 mins by UPLC-MS/MS analysis relative to control
[9] = system: Macrophage; test: Antiinflammatory activity in Escherichia coli O6:K2:H1-induced human M1 macrophage assessed as change in PGD2 level at 10 uM preincubated for 10 mins followed by Escherichia coli O6:K2:H1-stimulation and measured after 180 mins by UPLC-MS/MS analysis relative to control
[10] = system: Macrophage; test: Antiinflammatory activity in Escherichia coli O6:K2:H1-induced human M1 macrophage assessed as change in PGF2alpha level at 10 uM preincubated for 10 mins followed by Escherichia coli O6:K2:H1-stimulation and measured after 180 mins by UPLC-MS/MS analysis relative to control
[11] = system: Macrophage; test: Antiinflammatory activity in Escherichia coli O6:K2:H1-induced human M1 macrophage assessed as change in LTB4 level at 1 uM preincubated for 10 mins followed by Escherichia coli O6:K2:H1-stimulation and measured after 180 mins by UPLC-MS/MS analysis relative to control
[12] = system: Macrophage; test: Antiinflammatory activity in Escherichia coli O6:K2:H1-induced human M1 macrophage assessed as change in 15-HEPE level at 1 uM preincubated for 10 mins followed by Escherichia coli O6:K2:H1-stimulation and measured after 180 mins by UPLC-MS/MS analysis relative to control
[13] = system: Macrophage; test: Antiinflammatory activity in Escherichia coli O6:K2:H1-induced human M1 macrophage assessed as change in 7-HDHA level at 1 uM preincubated for 10 mins followed by Escherichia coli O6:K2:H1-stimulation and measured after 180 mins by UPLC-MS/MS analysis relative to control
[14] = system: Macrophage; test: Antiinflammatory activity in Escherichia coli O6:K2:H1-induced human M2 macrophage assessed as change in total LTB4 level at 10 uM preincubated for 10 mins followed by Escherichia coli O6:K2:H1-stimulation and measured after 180 mins by UPLC-MS/MS analysis relative to control
[15] = system: Macrophage; test: Antiinflammatory activity in Escherichia coli O6:K2:H1-induced human M2 macrophage assessed as change in PGE2 level at 10 uM preincubated for 10 mins followed by Escherichia coli O6:K2:H1-stimulation and measured after 180 mins by UPLC-MS/MS analysis relative to control
[16] = system: Macrophage; test: Antiinflammatory activity in Escherichia coli O6:K2:H1-induced human M2 macrophage assessed as change in 14-HDHA level at 1 uM preincubated for 10 mins followed by Escherichia coli O6:K2:H1-stimulation and measured after 180 mins by UPLC-MS/MS analysis relative to control

## O=C(Cc1ccc(Oc2nc3ccccc3s2)cc1F)NCCc1ccc(F)cc1
[1]
  Activity: 97%
[2]
  Activity: 42%
[3]
  Activity: 123%
[4]
  Activity: 88%
[5]
  Activity: 106%
[6]
  Activity: 105%
[7]
  Activity: 82%
[8]
  Activity: 72%
[9]
  Activity: 97%
[10]
  Activity: 80%
[11]
  Activity: 181%
[12]
  Activity: 97%
[13]
  Activity: 113%
[14]
  Activity: 72%
[15]
  Activity: 51%
[16]
  Activity: 103%
